Values quoted from earlier work in US20220354121A1, “EXTERNALLY HEATED GEL REPELLENT” (Lamplight Farms Incorporated, priority 2021, published 2022).

System: insect
Conditions: release into local atmosphere

## C/C=C/C1C(C(=O)OCc2c(F)c(F)c(COC)c(F)c2F)C1(C)C (stereo not shown) [metofluthrin]
  metofluthrin release known to be sufficient for local repellency purposes: 7 to 12 mg/h
